One series has as its target c-Met (Homo sapiens (Human), UniProt P08581). As to the kind of experiment: Kinase activity, EMD Millipore Kinase Profiler. Type of series: biochemical. To be noted: for IC50: read-out: c-Met Std (IC50); for inhibition at 1 µM: read-out: c-Met percent inhibition.
Another series addresses KDR (Homo sapiens (Human), UniProt P35968). The experiment in a line: Kinase activity, EMD Millipore Kinase Profiler. Type of series: biochemical. To be noted: for IC50: read-out: KDR Std (IC50); for inhibition at 1 µM: read-out: KDR percent inhibition.
A further series deals with Flt-3 (Homo sapiens (Human), UniProt P36888). The experiment in a line: Kinase activity, EMD Millipore Kinase Profiler. The following applies: for IC50: read-out: Flt-3 Std (IC50); for inhibition at 1 µM: read-out: Flt-3 percent inhibition. The format is biochemical.
For the next series, the target named is Aurora B MP (Homo sapiens (Human), UniProt Q96GD4). As to the kind of experiment: Kinase activity, EMD Millipore Kinase Profiler. The format is biochemical. To be noted: for IC50: read-out: Aurora B MP 8pt Std (IC50); for inhibition at 1 µM: read-out: Aurora B MP percent inhibition.
Aurora B MP, sequence (Q96GD4 whole entry): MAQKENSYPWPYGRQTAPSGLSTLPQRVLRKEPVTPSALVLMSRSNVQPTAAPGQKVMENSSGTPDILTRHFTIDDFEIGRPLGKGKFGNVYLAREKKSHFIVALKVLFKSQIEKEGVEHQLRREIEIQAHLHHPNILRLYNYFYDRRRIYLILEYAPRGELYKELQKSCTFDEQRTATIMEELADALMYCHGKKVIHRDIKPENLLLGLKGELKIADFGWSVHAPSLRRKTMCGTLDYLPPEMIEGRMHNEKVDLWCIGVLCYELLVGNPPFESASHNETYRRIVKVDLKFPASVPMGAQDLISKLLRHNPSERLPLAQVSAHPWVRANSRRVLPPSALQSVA
The target of another series is Flt-1 Alpha (Homo sapiens (Human), UniProt P17948). The experiment in a line: Kinase activity, EMD Millipore Kinase Profiler. The following applies: for inhibition at 1 µM: read-out: Flt-1 Alpha percent inhibition.
The target in a further series is RET (Homo sapiens (Human), UniProt P07949). As to the kind of experiment: Kinase activity, EMD Millipore Kinase Profiler. Type of series: biochemical. The following applies: read-out: RET percent inhibition.
For another series, the target named is Flt-4 (Homo sapiens (Human), UniProt P35916). The experiment in a line: Kinase activity, EMD Millipore Kinase Profiler. Type of series: biochemical. The following applies: for inhibition at 1 µM: read-out: Flt-4 percent inhibition.
Flt-4, sequence (P35916 25-1363): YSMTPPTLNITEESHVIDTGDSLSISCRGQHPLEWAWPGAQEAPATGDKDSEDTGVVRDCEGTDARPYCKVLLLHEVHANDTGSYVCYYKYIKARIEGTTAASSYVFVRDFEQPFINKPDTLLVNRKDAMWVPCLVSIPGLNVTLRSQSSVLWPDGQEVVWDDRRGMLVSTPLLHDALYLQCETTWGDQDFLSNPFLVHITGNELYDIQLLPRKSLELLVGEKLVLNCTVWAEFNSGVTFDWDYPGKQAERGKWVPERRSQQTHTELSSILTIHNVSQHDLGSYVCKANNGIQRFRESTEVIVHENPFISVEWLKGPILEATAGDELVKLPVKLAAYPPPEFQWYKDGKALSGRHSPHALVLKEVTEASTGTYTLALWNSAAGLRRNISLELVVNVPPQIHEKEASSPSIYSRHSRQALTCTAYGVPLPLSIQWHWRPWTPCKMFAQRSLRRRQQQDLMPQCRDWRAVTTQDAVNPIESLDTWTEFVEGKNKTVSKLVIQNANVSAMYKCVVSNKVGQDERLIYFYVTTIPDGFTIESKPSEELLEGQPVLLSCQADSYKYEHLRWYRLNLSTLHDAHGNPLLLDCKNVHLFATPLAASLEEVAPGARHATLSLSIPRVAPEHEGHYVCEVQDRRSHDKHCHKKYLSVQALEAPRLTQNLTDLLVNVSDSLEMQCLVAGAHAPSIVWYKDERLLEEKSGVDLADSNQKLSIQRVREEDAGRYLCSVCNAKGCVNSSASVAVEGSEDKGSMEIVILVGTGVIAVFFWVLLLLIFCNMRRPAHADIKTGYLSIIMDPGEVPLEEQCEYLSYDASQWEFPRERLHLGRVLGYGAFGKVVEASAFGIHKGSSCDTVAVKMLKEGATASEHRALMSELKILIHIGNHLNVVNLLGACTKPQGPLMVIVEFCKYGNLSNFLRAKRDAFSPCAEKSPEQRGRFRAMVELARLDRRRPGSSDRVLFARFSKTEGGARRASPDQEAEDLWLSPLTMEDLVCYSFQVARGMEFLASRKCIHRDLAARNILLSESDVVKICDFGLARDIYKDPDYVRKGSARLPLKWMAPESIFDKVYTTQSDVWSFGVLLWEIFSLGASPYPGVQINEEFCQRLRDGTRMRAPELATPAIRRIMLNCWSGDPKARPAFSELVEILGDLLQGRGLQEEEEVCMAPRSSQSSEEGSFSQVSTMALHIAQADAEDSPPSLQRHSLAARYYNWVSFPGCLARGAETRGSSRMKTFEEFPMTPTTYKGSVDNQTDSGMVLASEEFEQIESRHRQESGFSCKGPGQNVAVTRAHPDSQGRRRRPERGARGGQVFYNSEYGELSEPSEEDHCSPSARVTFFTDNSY
A short description of series [1]: Metabolite profiling of human plasma after [14C] cabozantinib (mass balance study). The following applies: single 175 mg oral dose of cabozantinib (L-malate salt) with [14C] cabozantinib, HPLC Method 1. The format is in vivo. How it is done: (§1) The objective of this study was to profile and identify metabolites of cabozantinib in human plasma, urine, and feces.
(§2) The plasma, urine, and fecal samples were collected from the 8 subjects for the metabolite profiling.
(§3) All samples were shipped to QPS LLC (Newark, Del.) and stored at −70° C. HPLC/tandem MS coupled with a radio flow-through detector (RFD) was used for metabolite profiling and identification for samples with sufficient levels of radioactivity.
(§4) HPLC fraction collection followed by counting with TopCount NXT™ was used for radioquantitation of plasma samples with sufficient levels of radioactivity. […] HPLC Method 1 was used for the analysis of pooled urine and fecal samples and individual plasma samples from different time points. […] HPLC Method 3 was used for pooled plasma samples.
For the investigation of co-eluting metabolites, nonradiolabeled plasma samples of six subjects were pooled, processed, and analyzed for pre-dose, 1-7, 8-96, and 120-336 hours post-dose. […] [^14C]
Radiolabeled and non-radiolabeled plasma samples were extracted employing the same method, using 1.0-2 mL plasma samples, depending on the volume available and radioactivity level of the samples. The supernatants were evaporated to dryness under a stream of nitrogen in an ambient water bath, and the residues were reconstituted in 0.35-0.5 mL of MeOH:ACN:water (10:20:70, v/v/v). The reconstituted samples were centrifuged at 15,000 rpm for 10 minutes. Aliquots of the supernatants were injected onto the HPLC system for analysis.
(§5) The system for metabolite profiling and identification (HPLC/MS/RFD) consisted of a HTC PAL autosampler, a Surveyor HPLC pump, a LTQ linear ion trap mass spectrometer, and a β-RAM Model 3 RFD. The data obtained by mass spectrometry and RFD were processed by Xcalibur and Laura Lite 3 software, respectively. The HPLC eluent was split between the RFD and mass spectrometer with a ratio of 3 to 1. The following are the summary of the conditions for HPLC, mass spectrometer, and RFD.
Mass spectra (MS, MS/MS, and MS/MS/MS) of cabozantinib and its metabolite standards, provided by the Exelixis, Inc., were acquired on an ion trap mass spectrometer. Major fragment patterns were proposed. Identification of these metabolites was confirmed by matching mass spectra (MS and MS/MS) and retention times with authentic reference standards. For other unknown metabolites, molecular ions were searched on LC/MS chromatograms operating in full scan positive as well as negative ionization modes at the same retention times as those found on LC-radio chromatogram. […]
For plasma samples, percent of total radioactivity in the sample for each peak at each time point was calculated and converted to ng/mL.

A short description of series [2]: Metabolite profiling of human feces after [14C] cabozantinib (mass balance study). The format is in vivo. The following applies: single 175 mg oral dose. How it is done:
as §1, §2, §3, §4
The supernatants were dried under a nitrogen stream, and the residues were reconstituted in water:ACN:FA (80:20:0.1, v/v/v). The reconstituted samples were centrifuged at 15,000 rpm for 10 min before analysis.
as §5
(§6) Mass spectra (MS, MS/MS, and MS/MS/MS) of cabozantinib and its metabolite standards, provided by the Exelixis, Inc., were acquired on an ion trap mass spectrometer. Major fragment patterns were proposed. Identification of these metabolites was confirmed by matching mass spectra (MS and MS/MS) and retention times with authentic reference standards. For other unknown metabolites, molecular ions were searched on LC/MS chromatograms operating in full scan positive as well as negative ionization modes at the same retention times as those found on LC-radio chromatogram. Product ion mass spectra and high resolution mass spectra were then acquired for the corresponding molecular ions. Putative metabolite structures were proposed based on the analysis of their mass fragment patterns.
For the pooled fecal samples, percent of total radioactivity in the pooled sample for each peak was calculated as the percent of total non-parent plus parent in the pooled samples: % of total non-parent plus parent in the pooled samples=(total radioactivity of the peak/total radioactivity of the parent and non-parent peaks)×100

The nature of series [3]: Metabolite profiling of human urine after [14C] cabozantinib (mass balance study). The format is in vivo. The following applies: single 175 mg oral dose; for presence in pooled urine sample: human urine. As to the method:
as §1, §2, §3, §4
The radioactivity in pooled urine and reconstituted solution was counted using LSC, and the reconstitution recovery calculated. […] Each pooled urine sample was lyophilized, the residue was reconstituted in water:ACN:FA (80:20:0.1, v/v/v), and the reconstituted sample was centrifuged at 15,000 rpm for 10 min before analysis.
as §5, §6
For the pooled urine samples, percent of total radioactivity in the pooled sample for each peak was calculated as the % of total non-parent in the pooled samples: % of total non-parent in the pooled samples=(total radioactivity of the peak/total radioactivity of the non-parent peaks)×100

The IC50 is the concentration that gives 50% inhibition. A word on the inhibition: it is the percentage by which the read-out fell short of the control.

The structures appear in SMILES notation.

c-Met, sequence (P08581 25-1390): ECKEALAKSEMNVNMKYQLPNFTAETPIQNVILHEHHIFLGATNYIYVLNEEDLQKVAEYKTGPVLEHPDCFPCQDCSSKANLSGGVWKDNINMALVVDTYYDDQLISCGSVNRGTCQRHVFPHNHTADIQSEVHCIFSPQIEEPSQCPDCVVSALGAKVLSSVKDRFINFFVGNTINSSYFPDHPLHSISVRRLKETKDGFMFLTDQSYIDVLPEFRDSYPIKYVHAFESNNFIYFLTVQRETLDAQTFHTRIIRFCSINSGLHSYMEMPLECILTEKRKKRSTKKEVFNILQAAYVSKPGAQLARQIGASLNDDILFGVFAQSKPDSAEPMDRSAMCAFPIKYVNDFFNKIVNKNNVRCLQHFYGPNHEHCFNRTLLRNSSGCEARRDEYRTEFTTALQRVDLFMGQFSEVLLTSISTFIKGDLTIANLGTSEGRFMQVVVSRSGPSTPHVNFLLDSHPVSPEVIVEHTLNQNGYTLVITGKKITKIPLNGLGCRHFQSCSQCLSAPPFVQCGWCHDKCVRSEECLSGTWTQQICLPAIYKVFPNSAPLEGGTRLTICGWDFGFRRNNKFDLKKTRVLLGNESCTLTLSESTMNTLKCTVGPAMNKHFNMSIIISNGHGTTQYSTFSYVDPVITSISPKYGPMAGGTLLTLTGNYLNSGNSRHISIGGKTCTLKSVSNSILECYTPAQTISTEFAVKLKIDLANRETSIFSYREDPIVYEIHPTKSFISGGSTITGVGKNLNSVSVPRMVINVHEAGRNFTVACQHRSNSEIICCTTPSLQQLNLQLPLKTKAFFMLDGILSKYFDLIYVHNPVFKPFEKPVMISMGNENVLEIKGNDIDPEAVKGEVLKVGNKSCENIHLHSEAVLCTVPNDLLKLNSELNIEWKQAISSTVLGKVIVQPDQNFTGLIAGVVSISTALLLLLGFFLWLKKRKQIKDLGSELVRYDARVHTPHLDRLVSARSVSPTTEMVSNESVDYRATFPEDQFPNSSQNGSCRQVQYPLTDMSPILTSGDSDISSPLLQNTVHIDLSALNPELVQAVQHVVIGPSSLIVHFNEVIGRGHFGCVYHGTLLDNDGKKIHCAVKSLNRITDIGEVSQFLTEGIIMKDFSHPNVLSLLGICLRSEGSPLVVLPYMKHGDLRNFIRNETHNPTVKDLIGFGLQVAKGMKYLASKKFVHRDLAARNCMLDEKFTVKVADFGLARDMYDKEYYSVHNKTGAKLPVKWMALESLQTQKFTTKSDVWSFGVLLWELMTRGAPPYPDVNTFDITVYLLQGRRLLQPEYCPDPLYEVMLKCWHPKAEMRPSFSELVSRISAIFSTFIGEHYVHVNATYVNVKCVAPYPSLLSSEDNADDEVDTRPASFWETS
KDR, sequence (P35968 20-1356): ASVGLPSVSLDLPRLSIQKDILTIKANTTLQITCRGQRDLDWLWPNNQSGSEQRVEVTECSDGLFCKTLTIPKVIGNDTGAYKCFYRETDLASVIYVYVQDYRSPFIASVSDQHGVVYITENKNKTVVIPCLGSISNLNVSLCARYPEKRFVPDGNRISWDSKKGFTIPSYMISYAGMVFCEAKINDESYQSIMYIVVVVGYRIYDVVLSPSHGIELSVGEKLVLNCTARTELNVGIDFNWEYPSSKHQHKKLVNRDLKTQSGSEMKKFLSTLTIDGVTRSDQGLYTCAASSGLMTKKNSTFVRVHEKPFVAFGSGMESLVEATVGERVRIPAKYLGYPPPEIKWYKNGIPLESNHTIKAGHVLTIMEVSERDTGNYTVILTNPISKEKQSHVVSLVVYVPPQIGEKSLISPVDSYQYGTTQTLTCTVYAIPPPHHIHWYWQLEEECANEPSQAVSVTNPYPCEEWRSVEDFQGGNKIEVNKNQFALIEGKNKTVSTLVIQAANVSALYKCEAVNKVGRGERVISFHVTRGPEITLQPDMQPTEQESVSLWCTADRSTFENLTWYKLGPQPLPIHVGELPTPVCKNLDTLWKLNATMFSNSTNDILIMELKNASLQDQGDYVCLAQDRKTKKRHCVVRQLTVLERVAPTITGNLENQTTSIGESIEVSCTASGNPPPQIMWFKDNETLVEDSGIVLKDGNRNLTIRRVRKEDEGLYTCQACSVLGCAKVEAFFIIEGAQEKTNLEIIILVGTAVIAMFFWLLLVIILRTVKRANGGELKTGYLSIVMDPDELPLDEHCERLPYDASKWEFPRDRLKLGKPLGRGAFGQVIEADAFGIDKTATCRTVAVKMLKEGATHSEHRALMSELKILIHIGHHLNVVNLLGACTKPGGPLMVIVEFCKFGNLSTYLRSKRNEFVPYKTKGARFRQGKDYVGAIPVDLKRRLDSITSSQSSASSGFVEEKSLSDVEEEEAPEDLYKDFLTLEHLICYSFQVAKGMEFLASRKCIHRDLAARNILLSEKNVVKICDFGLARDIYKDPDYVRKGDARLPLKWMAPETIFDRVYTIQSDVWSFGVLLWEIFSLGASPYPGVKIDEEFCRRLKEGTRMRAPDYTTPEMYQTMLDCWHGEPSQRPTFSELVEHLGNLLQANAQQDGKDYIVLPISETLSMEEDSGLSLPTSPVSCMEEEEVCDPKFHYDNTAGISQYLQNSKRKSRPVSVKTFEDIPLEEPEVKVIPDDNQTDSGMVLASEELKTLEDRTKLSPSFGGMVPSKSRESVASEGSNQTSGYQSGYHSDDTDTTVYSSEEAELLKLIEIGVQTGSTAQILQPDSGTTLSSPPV

As to `COc1cc2nccc(Oc3ccc(NC(=O)C4(C(=O)Nc5ccc(F)c(O)c5)CC4)cc3)c2cc1OC` [Compound 13], the IC50 on c-Met is below 50 nM; at KDR, below 50 nM; at Flt-3, below 50 nM; at Aurora B MP it was 50 to 500 nM; at Flt-1 Alpha, 500 to 5000 nM.
Take `COc1cc2nccc(Oc3ccc(NC(=O)C4(C(=O)Nc5ccc(F)cc5OS(=O)(=O)O)CC4)cc3)c2cc1OC` [Compound 9]: the inhibition at 1 µM at c-Met is at least 75%; on RET it was at least 75%; on KDR, at most 25%; at Flt-3 it was at least 50%; at Flt-4 it was at least 75%; on Aurora B MP, at least 75%. Further, the inhibition at 1 µM on Flt-1 Alpha is at least 50%. For the same molecule, in [1], the “peak on plasma radio-chromatograms” value is “major peaks”.
Take `COc1cc2nccc(Oc3ccc(NC(=O)C4(C(=O)Nc5ccc(F)cc5O)CC4)cc3)c2cc1OC` [Compound 16]: the IC50 on c-Met is below 50 nM; on KDR it was below 50 nM; on Flt-3, below 50 nM; on Aurora B MP, 50 to 500 nM; on Flt-1 Alpha, 500 to 5000 nM. Further, the “presence in pooled fecal sample” value in series [2] (0-72 hours post dose) and in series [2] (144-192 hours post dose) was “observed” throughout.
As to `COc1cc2nccc(Oc3ccc(NC(=O)C4(C(=O)Nc5ccc(F)cc5)CC4)cc3)c2cc1OC` [Cabozantinib, N-(4-{[6,7-bis(methyloxy)quinolin-4-yl]oxy}phenyl)-N′-(4-fluorophenyl)cyclopropane-1,1-dicarboxamide, reference compound], the IC50 on Flt-4 (read-out: Flt-4 Std (IC50)) is below 50 nM. Further, in [1], the “peak on plasma radio-chromatograms” value was “major peaks”. Besides, in [3] (human urine samples, all intervals), the “presence in urine samples” value is recorded as “not observed”. In addition, the “presence in pooled fecal sample” value in series [2] (0-72 hours post dose) is “observed”.
For the molecule `COc1cc2c(Oc3ccc(NC(=O)C4(C(=O)Nc5ccc(F)cc5)CC4)cc3)cc[n+]([O-])c2cc1OC` [Compound 19], the “peak on plasma radio-chromatograms” value in [1] was “major peaks”. The “presence in pooled urine sample” value in [3] (0-72 hours post dose) is “observed”.
With `COc1cc2nccc(Oc3ccc(NC(=O)C4(C(=O)O)CC4)cc3)c2cc1OC` [Compound 7, 1-[4-(6,7-Dimethoxy-quinolin-4-yloxy)-phenylcarbamoyl]-cyclopropane carboxylic acid], the IC50 on c-Met was above 5000 nM; at KDR, above 5000 nM; at Flt-3, 500 to 5000 nM; at Aurora B MP, 500 to 5000 nM. In addition, the “peak on plasma radio-chromatograms” value in [1] is given as “one of the minor peaks”. For the same molecule, the “presence in pooled urine sample” value in series [3] (0-72 hours post dose) and in [3] (144-192 hours post dose) was “observed” throughout. Moreover, the “presence in pooled fecal sample” value in series [2] (0-72 hours post dose) and in series [2] (144-192 hours post dose) was “observed” throughout.
As for `COc1cc2nccc(Oc3ccc(NC(=O)C4(C(=O)O)CC4)cc3)c2cc1OS(=O)(=O)O` [Compound 2a], the inhibition at 1 µM at c-Met is at least 50%; on RET it was at most 25%; on KDR it was at most 25%; on Flt-3, at most 25%; on Flt-4, at least 25%; on Aurora B MP, at most 25%. For the same molecule, on Flt-1 Alpha, the inhibition at 1 µM was at most 25%.

The values above are taken from patent publication US10273211B2, “Metabolites of N-{4-([6,7-bis(methyloxy)quinolin-4-yl]oxy}phenyl)-N′-(4-fluorophenyl)cyclopropane-1,1-dicarboxamide” (Exelixis, Inc., priority 2013, dated 2019).
